Measured values taken from article PMC2099433, “The binding site for neohesperidin dihydrochalcone at the human sweet taste receptor” (BMC Structural Biology, 2007).
Where a chain is given by its changes, count along the chain named. Where a SMILES comes first, the peptide text is derived from it.

Key:
[1] = target: T1, hTAS1R2 + hTAS1R3 V621L^2.58 (Homo sapiens, UniProt Q7RTX0+Q8TE23, V621L); assay: Calcium response (FLIPR), hTAS1R3 mutant coexpressed with hTAS1R2; format: cell-based; conditions: for receptor activation: mutant V621L^2.58; for EC50: variant V621L^2.58, n.f. = no response to any tested sweetener
T1 construct: expressed in transfected cells; host or cells: HEK293T cells stably expressing G16Gust44
T1 sequence (Q8TE23 20-839): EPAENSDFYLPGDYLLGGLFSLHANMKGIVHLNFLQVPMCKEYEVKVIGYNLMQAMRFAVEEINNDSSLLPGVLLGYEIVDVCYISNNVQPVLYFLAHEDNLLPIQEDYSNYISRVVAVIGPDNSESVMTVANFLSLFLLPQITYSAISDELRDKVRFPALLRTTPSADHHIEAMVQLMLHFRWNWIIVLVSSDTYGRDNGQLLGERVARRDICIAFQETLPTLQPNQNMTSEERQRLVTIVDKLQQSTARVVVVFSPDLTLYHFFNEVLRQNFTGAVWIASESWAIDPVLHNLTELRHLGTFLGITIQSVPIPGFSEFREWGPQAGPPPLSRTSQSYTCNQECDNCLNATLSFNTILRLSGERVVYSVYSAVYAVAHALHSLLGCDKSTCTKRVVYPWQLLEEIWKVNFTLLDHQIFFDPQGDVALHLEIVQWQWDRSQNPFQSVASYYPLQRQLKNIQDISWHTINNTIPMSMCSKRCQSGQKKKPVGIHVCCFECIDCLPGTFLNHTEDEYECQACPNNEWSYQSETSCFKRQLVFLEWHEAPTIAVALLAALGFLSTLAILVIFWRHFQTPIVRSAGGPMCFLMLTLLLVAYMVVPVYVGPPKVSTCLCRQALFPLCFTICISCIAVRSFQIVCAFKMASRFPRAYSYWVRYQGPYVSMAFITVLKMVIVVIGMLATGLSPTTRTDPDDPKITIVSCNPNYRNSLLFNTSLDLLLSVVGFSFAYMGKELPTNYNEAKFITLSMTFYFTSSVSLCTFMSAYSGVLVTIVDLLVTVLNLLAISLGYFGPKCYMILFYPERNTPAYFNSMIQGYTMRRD
T1 sequence (Q7RTX0 21-852 V621L): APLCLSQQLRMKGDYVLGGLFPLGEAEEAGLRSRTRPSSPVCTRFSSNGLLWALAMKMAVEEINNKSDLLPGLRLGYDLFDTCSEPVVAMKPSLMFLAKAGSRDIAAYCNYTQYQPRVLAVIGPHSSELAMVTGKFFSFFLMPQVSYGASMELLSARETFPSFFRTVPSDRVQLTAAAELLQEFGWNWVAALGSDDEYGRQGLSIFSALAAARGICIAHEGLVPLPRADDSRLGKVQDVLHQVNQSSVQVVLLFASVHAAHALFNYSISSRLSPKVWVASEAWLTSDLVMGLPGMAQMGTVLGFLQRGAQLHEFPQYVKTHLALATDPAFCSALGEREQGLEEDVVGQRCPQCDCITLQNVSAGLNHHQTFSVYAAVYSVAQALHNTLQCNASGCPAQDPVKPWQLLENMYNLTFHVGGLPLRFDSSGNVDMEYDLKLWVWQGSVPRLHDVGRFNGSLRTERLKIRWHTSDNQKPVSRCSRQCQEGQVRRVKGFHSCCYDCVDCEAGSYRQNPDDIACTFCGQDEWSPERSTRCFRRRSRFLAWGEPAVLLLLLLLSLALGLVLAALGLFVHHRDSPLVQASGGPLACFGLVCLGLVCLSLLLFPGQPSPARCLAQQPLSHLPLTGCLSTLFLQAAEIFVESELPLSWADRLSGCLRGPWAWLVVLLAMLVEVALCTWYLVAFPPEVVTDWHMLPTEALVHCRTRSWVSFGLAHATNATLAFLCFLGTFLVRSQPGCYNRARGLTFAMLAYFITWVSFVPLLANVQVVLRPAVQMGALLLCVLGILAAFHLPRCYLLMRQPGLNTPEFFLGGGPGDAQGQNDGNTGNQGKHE
Description: (§1) The cDNAs for TAS1Rs tagged at the C-terminus with the herpes simplex virus glycoprotein D (HSV) were transiently transfected into HEK293T cells stably expressing the chimeric G-protein subunit G16Gust44 [44] using Lipofectamine 2000 (Invitrogen, Carlsbad, CA) according to the manufacturer's protocol. 3–4 hours after transfection, DMEM was replaced by low-glucose DMEM supplemented with GlutaMAX and 10% dialyzed FBS (Invitrogen, Carlsbad, CA). 24 h post transfection, cells were loaded for 1 h with the calcium sensitive dye Fluo4-AM (2 μg/ml in DMEM, Molecular Probes, Carlsbad, CA). […] We monitored calcium mobilization following receptor stimulation with sweet tastants by an automated fluorometric imaging plate reader (FLIPR, Molecular Devices, Sunnyvale, CA). Compounds used as stimuli (Sigma-Aldrich, St. Louis, MO; Merck, Whitehouse Station, NJ) were dissolved in C1 solution. All data were collected from at least three independent experiments carried out in duplicate. The obtained calcium signals were corrected for the response of mock transfected cells and normalized to the fluorescence of cells prior to the application of the stimulus using ΔF/F = (F-F0)/F0.

[2] = target: T2, hTAS1R2 + hTAS1R3 C801I^7.39 (Homo sapiens, UniProt Q7RTX0+Q8TE23, C801I); assay: as above; format: cell-based; conditions: for EC50 / Emax: variant C801I^7.39; for Emax: read-out: maximal signal (% of wt)
T2 construct: expressed in transfected cells; host or cells: HEK293T cells stably expressing G16Gust44
T2 sequence (Q7RTX0 21-852 C801I): T1 sequence (Q7RTX0 21-852 V621L) with L601V, C781I
T2 sequence (Q8TE23 20-839): T1 sequence (Q8TE23 20-839)
Description: as §1

| SMILES | receptor activation [1] | EC50 [1] | EC50 [2] | Emax [2] | receptor activation ([2]; mutant C801I^7.39, any tested concentration) |
| --- | --- | --- | --- | --- | --- |
| COc1ccc(CCC(=O)c2c(O)cc(O[C@@H]3O[C@H](CO)[C@@H](O)[C@H](O)[C@H]3O[C@@H]3O[C@@H](C)[C@H](O)[C@@H](O)[C@H]3O)cc2O)cc1O [NHDC, neohesperidin dihydrochalcone] | could not be activated | n.f. | 1600 ± 700 µM | 70 ± 13% |  |
| CC1=CC(=O)NS(=O)(=O)O1 [acesulfame K] | could not be activated |  |  |  |  |
| COC(=O)[C@H](Cc1ccccc1)NC(=O)[C@@H](N)CC(=O)O [aspartame] (HELM PEPTIDE1{D.F.[CO[*:1]]}$$$$V2.0) | could not be activated | n.f. | 1200 ± 500 µM | 50 ± 9% |  |
| O=S(=O)(O)NC1CCCCC1 [cyclamate] | could not be activated |  |  |  | could not be activated at any tested concentration |
